Laboratory results as given in patent US11078170B2 (Assembly Biosciences, Inc., priority 2017, dated 2021).
pEC50: −log10 of the molar value.

System: HBV viral production from HepAD38 cells
Assay: Activity of test compounds on viral production from HepAD38 cells (viral load by qPCR of HBV core sequence in supernatant)
Assay type: cell-based
Conditions: Hepatitis B virus, 120 h, 5 days incubation, HBV DNA in supernatant by qPCR, top concentration 10 μM, read-out: Viral Load EC50 Activity range
In short: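 HepAD38 cells, 50,000/well in tetracycline-free 2% FBS medium, treated 5 days at 37° C. with compound from 10 μM top concentration. HBV DNA in supernatant quantified by TaqMan qPCR of core sequence against DNA standards, relative to DMSO wells; CellTiter-Glo viability read in parallel. EC50/CC50 from four-parameter logistic fit.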

Compound | pEC50
[2H]C1C([2H])(c2ccc(-c3cn(C)cn3)s2)NS(=O)(=O)N(C)C1([2H])C(=O)Nc1ccc(F)c(Cl)c1 (stereo not drawn) [HBV-CSU-375, Cis-N-(3-Chloro-4-fluorophenyl)-2-methyl-5-(5-(1-methyl-1H-imidazol-4-yl)thiophen-2-yl)-1,2,6-thiadiazinane-3,4,5-d3-3-carboxamide 1,1-dioxide] | > 6.00
[2H]C1C([2H])(c2ccc(-c3cn(C([2H])([2H])[2H])cn3)s2)NS(=O)(=O)N(C)C1([2H])C(=O)Nc1ccc(F)c(Cl)c1 (stereo not drawn) [HBV-CSU-376, Cis-N-(3-Chloro-4-fluorophenyl)-2-methyl-5-(5-(1-(methyl-d3)-1H-imidazol-4-yl)thiophen-2-yl)-1,2,6-thiadiazinane-3,4,5-d3-3-carboxamide 1,1-dioxide] | > 6.00
[2H]C1C([2H])(c2ccc(-c3cn(C([2H])([2H])[2H])cn3)s2)NS(=O)(=O)N(C([2H])([2H])[2H])C1([2H])C(=O)Nc1ccc(F)c(Cl)c1 (stereo not drawn) [HBV-CSU-378, Cis-N-(3-chloro-4-fluorophenyl)-2-(methyl-d3)-5-(5-(1-(methyl-d3)-1H-imidazol-4-yl)thiophen-2-yl)-1,2,6-thiadiazinane-3,4,5-d3-3-carboxamide 1,1-dioxide] | > 6.00
CN1[C@H](C(=O)Nc2ccc(F)c(Br)c2)C[C@H](c2ncc(Br)s2)NS1(=O)=O [HBV-CSU-383, (3S,5R)—N-(3-bromo-4-fluorophenyl)-5-(5-bromothiazol-2-yl)-2-methyl-1,2,6-thiadiazinane-3-carboxamide 1,1-dioxide] | > 6.00
